From paper PMC4506051, “Pharmacokinetic Profiles of Active Ingredients and Its Metabolites Derived from Rikkunshito, a Ghrelin Enhancer, in Healthy Japanese Volunteers: A Cross-Over, Randomized Study” (PLoS ONE, 2015)

Columns and labels:
[1] = Stability of ingredients in gastric pH solution (pH 1.2, 37°C); format: physicochemical; details: pH 1.2
Procedure: Rikkunshito gradually dissolved in acidic solution (pH 1.2) at 37°C, and the concentration of atractylodin after adding 0.25, 0.5, 1, and 2 h was measured by gas chromatography–mass spectrometry.

[2] = Exploratory trial: ingredients in β-glucuronidase (enzyme)-treated plasma; format: in vivo, human; details: β-glucuronidase-treated, rikkunshito 7.5 g, mean ± S.D., n = 4
Procedure: (§1) In the first exploratory trial, 20-mL blood samples were collected from the cutaneous vein in the subjects’ forearm via a blood sampling tube that contained heparin at 0 (preadministration), 0.5, 1, 2, 4, and 8 h after a single oral administration of rikkunshito (Lot E24652). The dose of rikkunshito used in this trial was 7.5 g/day, which is the clinical daily dose, to widely explore rikkunshito-derived ingredients that enter the blood. Along with plasma, urine samples were collected at three points: between dinner and bedtime (preadministration), between 0 and 4 h after administration, and between 4 and 8 h after administration. The blood was immediately centrifuged at 1700 ×g for 10 min to obtain plasma. Plasma and urine fractions were stored at −80°C or lower until analysis.
(§2) For quantification of 30 ingredients other than atractylodin and synephrine, 25 µL of standard solution or methanol was added to 500 µL plasma or urine samples followed by mixing. Atractylenolide III or digoxin (IS) solution (50 μL) was added to the solutions followed by mixing. For urine, 400 µL of blank plasma was added to the solutions. Ammonium acetate solution (100 mM, 100 or 400 µL) was added to the solutions followed by mixing. For enzymatic treatment, plasma and urine samples were incubated with β-glucuronidase (100 units in 100 mM ammonium acetate) for 2 h at 37°C. A solid-phase cartridge (OASIS HLB, 30 mg/1cc, Waters) was conditioned with methanol and 10 mM ammonium acetate solution, and the samples were loaded onto the cartridge. The cartridge was washed water : methanol (9:1, v/v), and 1.5 mL of methanol and 30 µL of propylene glycol were added to the cartridge to elute the analytes. The mixtures were dried at 25°C under a stream of nitrogen gas. Furthermore, 100 μL of 10 mM ammonium acetate : methanol (8:2, v/v) was added to the dried samples followed by mixing and sonication. The solutions were filtered (0.22 µm) and followed by injection into the LC–MS/MS system. […] Those analytical conditions are summarized in S2 Table and S3 Table.

[3] = Exploratory trial: amount of rikkunshito ingredients in urine; format: in vivo, human; details: mean ± S.D., n = 4; for Amount in urine, 0–4 h: 0–4 h after single oral rikkunshito 7.5 g; for Amount in urine, 4–8 h: 4–8 h after single oral rikkunshito 7.5 g; for Amount in urine, Pre: preadministration (between dinner and bedtime)
Procedure: as §1
(§3) For quantification of synephrine, 5 µL of standard solution or methanol was added to 100 µL plasma or urine samples followed by mixing. Ten microliters of erythromycin [internal standard (IS)] solution was added to the solutions followed by mixing and centrifugation (20,400 ×g, 5 min, 4°C). The supernatants were loaded onto an Ostro 96-well plate (Waters) and centrifuged (1500 ×g, 3 min, 4°C) followed by injection into the LC–MS/MS.
as §2

[4] = Exploratory trial: plasma concentration of rikkunshito ingredients after single oral rikkunshito 7.5 g; format: in vivo
Procedure: A random sequence was generated using a computer. The safety endpoint was evaluated in all volunteers.
as §1, §3, §2

[5] = Exploratory trial: ingredients in β-glucuronidase (enzyme)-treated urine; format: in vivo, human; details: β-glucuronidase-treated, mean ± S.D., n = 4
Procedure: as §1, §2

[6] = Method validation: freeze-thaw stability in plasma; details: 160 pg/mL, deep freezer (−30°C to −10°C), after 3 cycles of freeze-thaw
[7] = Method validation: stability in blood; details: 4 pg/mL
[8] = clinical; details: human, in vivo, po, Median t max (range)
Text: The first trial was a nonrandomized, open-label, one-period design. The second trial was a randomized, open-label, three-arm, three-period design (Fig 1). With respect to inclusion criteria, the studies included healthy Japanese adults between 20 and 45 years of age with a body mass index between 18 and 25 who were willing and able to comply with the study requirements. Exclusion criteria for this study included a history of significant liver, heart, or vessel disease and consumption of supplements that contained any rikkunshito ingredients or any drug within 3 days to 1 week before the first dose. Other standard exclusion criteria included relevant allergies, pregnant or nursing females, and any alcohol or nicotine use. The sample size was set as more than 15 based on the Ministry of Health, Labour and Welfare’s guidelines. Subjects allocated to a screening test were randomized to one of three groups by the central allocation system (allocation ratio 1:1:1). A random sequence was generated using a computer. The safety endpoint was evaluated in all volunteers. This endpoint was defined on the basis of a physician’s judgement after examination or observation that a serious adverse event had occurred. Adverse events included death, a life-threatening event, an event requiring hospitalization for treatment or an extended stay in hospital, an event resulting in permanent or temporary disability or dysfunction, an event resulting in a congenital abnormality, or any other serious medical phenomenon. With respect to side effects, no specific conditions were defined, and all adverse events for which no causal relationship with the drug could be excluded were deemed to be side effects. In each stage during the 48-h period following rikkunshito administration, the physician monitored the patient for subjective symptoms, objective findings, swelling, body temperature (axillary), blood pressure (sitting), and pulse (sitting). The physician also conducted a hematological examination to measure the patient’s red blood cell, leucocyte and platelet counts, hemoglobin level, and hematocrit value. A biochemical examination was conducted to determine total protein, blood urea nitrogen, creatinine, uric acid, aspartate aminotransferase, alanine aminotransferase, total bilirubin, alkaline phosphatase, γ-glutamyltranspeptidase albumin, prothrombin time, total cholesterol, C-reactive protein, and potassium to identify any abnormalities in comparison with the subject’s condition prior to administration. All participants fasted for 12 h before administration and 4 h after administration of the study drug.
In the second quantitative trial, 12-mL blood samples were collected at 0 (preadministration), 0.25, 0.5, 1, 2, 3, 4, 6, 8, 10, 12, 24, and 48 h after a single oral administration of rikkunshito (Lot H05142). A total of 3 daily doses were used in this trial, i.e., the clinical dose per administration (2.5 g) as the lowest dose, the clinical daily dose (7.5 g) as the highest dose, and an intermediate dose (5.0 g), to broadly discuss the pharmacokinetic characteristics of the ingredients measured. The trial participants were hospitalized overnight on the day they ingested rikkunshito, and returned home the following day after blood samples were collected at the 24-h time point. The participants returned to the hospital to provide blood samples at 48 h. The blood was immediately centrifuged at 1700 ×g for 15 min to obtain plasma. Plasma fractions were stored at −20°C or lower until analysis.
Plasma, urine, and rikkunshito formulation samples were analyzed for rikkunshito ingredients concentrations using a liquid chromatography–mass spectrometry with tandem mass spectrometer assay (LC–MS/MS; API5000, Triple Quad 6500, or QTRAP5500; AB Sciex, Tokyo, Japan) or gas chromatography–mass spectrometry. Further information of analytical methods can be found at S1 Appendix.

[9] = Method validation: stability in standard, stock and working solution; details: 0.1 mg/mL
[10] = Method validation: long-term stability in plasma; details: 160 pg/mL
[11] = Method validation: post-preparative stability (autosampler)
[12] = Formation of ingredients derived from rikkunshito in formulation, blood, and urine (S11 Table summary); details: after rikkunshito administration, per ingredient in the formulation; for Formation of ingredients: form found in Urine: BQL = below the quantification limit
[13] = of the ingredient in the formulation; summary table, reference not given; cited from earlier work

COc1c(CC=C(C)C)c(O)cc2oc(=O)c(-c3ccc(O)cc3O)cc12 [Glycycoumarin]
Stability in gastric pH solution, Quantitative value ([1]; 0.5 h): 5.58 ng/mL | Stability in gastric pH solution, Quantitative value ([1]; 1 h): 7.09 ng/mL | Stability in gastric pH solution, Quantitative value ([1]; 2 h): 5.09 ng/mL | concentration at 0.5 h ([2]; human, plasma, oral, 0.5 h): 2.34 ng/mL | concentration at 1 h ([2]; human, plasma, oral, 1 h): 0.987 ± 0.36 ng/mL | concentration at 2 h ([2]; human, plasma, oral, 2 h, read-out: Plasma concentration in enzyme-treated plasma, 2 h): 0.328 ± 0.183 ng/mL | concentration at 4 h ([2]; human, plasma, oral, 4 h, read-out: Plasma concentration in enzyme-treated plasma, 4 h): 0.371 ± 0.113 ng/mL | concentration at 8 h ([2]; human, plasma, oral, 8 h, read-out: Plasma concentration in enzyme-treated plasma, 8 h): 0.222 ± 0.134 ng/mL | Plasma concentration in enzyme-treated plasma, 0 h ([2]; 0 h (preadministration)): BQL | Plasma concentration in enzyme-treated plasma, 0.5 h ([2]; 0.5 h): 2340 ± 848 pg/mL | Amount in urine, 0–4 h [3]: 2300 ± 1150 ng | Amount in urine, 4–8 h [3]: 1600 ± 886 ng | Amount in urine, Pre [3]: 4.61 ± 4.20 ng | Plasma concentration, 0 h ([4]; 0 h (preadministration), single oral rikkunshito 7.5 g, mean ± S.D., n = 4): BQL | Plasma concentration, 4 h ([4]; 4 h after single oral rikkunshito 7.5 g, mean ± S.D., n = 4): BQL | Plasma concentration, 8 h ([4]; 8 h after single oral rikkunshito 7.5 g, mean ± S.D., n = 4): BQL | Plasma concentration of unchanged form before enzyme treatment ([4]; detected in only one subject, at any time point): approximately 30 pg/ml | concentration at 0.5 h ([4]; human, plasma, 0.5 h after single oral rikkunshito 7.5 g, mean ± S.D., n = 4, read-out: Plasma concentration, 0.5 h): 9.23 ± 18.5 pg/mL | concentration at 1 h ([4]; human, plasma, 1 h after single oral rikkunshito 7.5 g, mean ± S.D., n = 4): 7.15 ± 14.3 pg/mL | concentration at 2 h ([4]; human, plasma, 2 h after single oral rikkunshito 7.5 g, mean ± S.D., n = 4, read-out: Plasma concentration, 2 h): 6.93 ± 13.9 pg/mL | Amount in enzyme-treated urine, 0–4 h ([5]; 0–4 h after rikkunshito 7.5 g): 7010 ± 2840 ng | Amount in enzyme-treated urine, 4–8 h ([5]; 4–8 h after rikkunshito 7.5 g): 3260 ± 1580 ng | Amount in enzyme-treated urine, Pre ([5]; preadministration): 22.8 ± 19.7 ng

O=C1C[C@@H](c2ccc(O)cc2)Oc2cc(O)ccc21 [Liquiritigenin]
Freeze-thaw stability, RR [6]: 92.5% | Stability in blood, RR ([7]; at room temperature for 2 h): 82.0% | Stability in blood, RR ([7]; on ice for 2 h): 91.6% | Tmax [8]: > 3 h | Stock solution stability, RR ([9]; refrigerator (1°C to 8°C) for 54 days): 54 days: 99.6% | Stock solution stability, RR ([9]; refrigerator (1°C to 8°C) for 129 days): 129 days: 103.5% | Long-term stability, RR ([10]; freezer (−30°C to −10°C) for 22 days): 92.5% | Long-term stability, RR ([10]; freezer (−30°C to −10°C) for 31 days): 87.4% | Long-term stability, RR ([10]; freezer (−30°C to −10°C) for 220 days): 87.9% | Post-preparative stability, RR ([11]; 4 pg/mL, autosampler set at 4°C for 25 h): 89.2% | Post-preparative stability, RR ([11]; 4 pg/mL, autosampler set at 4°C for 48 h): 94.1% | Post-preparative stability, RR ([11]; 160 pg/mL, autosampler set at 4°C for 25 h): 99.3% | Post-preparative stability, RR ([11]; 160 pg/mL, autosampler set at 4°C for 48 h): 103.4%

C[C@@H]1O[C@@H](OC[C@H]2O[C@@H](Oc3cc(O)c4c(c3)O[C@H](c3ccc(O)cc3)CC4=O)[C@H](O)[C@@H](O)[C@@H]2O)[C@H](O)[C@H](O)[C@H]1O [Narirutin]
Stability in gastric pH solution, Quantitative value ([1]; 0.5 h): 1630 ng/mL | Stability in gastric pH solution, Quantitative value ([1]; 1 h): 1700 ng/mL | Stability in gastric pH solution, Quantitative value ([1]; 2 h): 1690 ng/mL | Amount in urine, 0–4 h [3]: BQL | Amount in urine, 4–8 h [3]: BQL | Amount in urine, Pre [3]: 9.26 ± 18.5 ng | Formation of ingredients: form found in Blood [12]: Naringenin Conjugate metabolites of naringenin^a | Formation of ingredients: form found in Urine [12]: Naringenin | Metabolite by enterobacterium [13]: Naringenin

CC1(C)[C@@H](O[C@H]2O[C@H](C(=O)O)[C@@H](O)[C@H](O)[C@H]2O[C@@H]2O[C@H](C(=O)O)[C@@H](O)[C@H](O)[C@H]2O)CC[C@]2(C)[C@H]3C(=O)C=C4[C@@H]5C[C@@](C)(C(=O)O)CC[C@]5(C)CC[C@@]4(C)[C@]3(C)CC[C@@H]12 [glycyrrhizic acid]
Formation of ingredients: form found in Blood [12]: 18β-Glycyrrhetinic acid Glycyrrhetinic acid 3-O-glucuronide | Formation of ingredients: form found in Urine [12]: 18β-Glycyrrhetinic acid Glycyrrhetinic acid 3-O-glucuronide

O=C(/C=C/c1ccc(O[C@@H]2O[C@H](CO)[C@@H](O)[C@H](O)[C@H]2O)cc1)c1ccc(O)cc1O [isoliquiritin]
Formation of ingredients: form found in Blood [12]: Isoliquiritigenin Conjugate metabolites of isoliquiritigenin | Formation of ingredients: form found in Urine [12]: Isoliquiritigenin Conjugate metabolites of isoliquiritigenin | Metabolite by enterobacterium [13]: Isoliquiritigenin
